Experimental data: the supplement of paper PMC8960247
Structures can show the parent of a compound that is named as a salt. ± gives the standard error.

Key:
[1] = system: 621-102 (TSC2-deficient); test: relative viability vs DMSO; higher = less cytotoxic; settings: serum: 10% FBS, 72 h
[2] = system: 621-103 (TSC2-rescued); test: as above; settings: serum: 10% FBS, 72 h
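Further: immortalized renal angiomyolipoma cells stably carrying empty vector or TSC2, dosed in 384-well plates in DMEM, viability normalized to vehicle-treated wells within each plate.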

| Structure (SMILES) | relative viability ([1]; 0.0001 µM) [%] | relative viability ([1]; 0.001 µM) [%] | relative viability ([1]; 0.01 µM) [%] | relative viability ([1]; 0.1 µM) [%] | relative viability ([1]; 1 µM) [%] | relative viability ([1]; 10 µM) [%] | relative viability ([2]; 0.0001 µM) [%] | relative viability ([2]; 0.001 µM) [%] | relative viability ([2]; 0.01 µM) [%] | relative viability ([2]; 0.1 µM) [%] | relative viability ([2]; 1 µM) [%] | relative viability ([2]; 10 µM) [%] |
| --- | --- | --- | --- | --- | --- | --- | --- | --- | --- | --- | --- | --- |
| CN1CCN(C2=Nc3cc(Cl)ccc3Nc3ccccc32)CC1 [Clozapine] | 100 ± 1.7 | 108 ± 1.1 | 105.2 ± 0.32 | 104 ± 2.2 | 94.53 ± 0.49 | 98.1 ± 3.2 | 101.3 ± 0.79 | 113 ± 2.2 | 109 ± 1.1 | 105 ± 0.64 | 109 ± 0.24 | 92.73 ± 0.46 |
| COc1cc2c(Oc3ccc(NC(=O)C4(C(=O)Nc5ccc(F)cc5)CC4)cc3F)ccnc2cc1OCCCN1CCOCC1 | 108 ± 7.4 | 111 ± 6.2 | 98 ± 5.1 | 102 ± 5.8 | 84.55 ± 0.78 | 2.81 ± 0.28 | 97.08 ± 0.89 | 97.1 ± 1.1 | 93.9 ± 3.7 | 91.72 ± 0.35 | 69.1 ± 1.5 | 1.1 ± 0.14 |
| CCC1=C[C@@H]2CN(C1)Cc1c([nH]c3ccccc13)[C@@](C(=O)OC)(c1cc3c(cc1OC)N(C)[C@H]1[C@@](O)(C(=O)OC)[C@H](OC(C)=O)[C@]4(CC)C=CCN5CC[C@@]31[C@H]54)C2 [Vinorelbine(Navelbine)] | 51.2 ± 1.2 | 41.4 ± 1.7 | 44.2 ± 2.1 | 38.08 ± 0.27 | 36.28 ± 0.14 | 27.51 ± 0.032 | 50.3 ± 2.2 | 37.9 ± 1.1 | 39 ± 0.6 | 31.2 ± 0.92 | 29.86 ± 0.072 | 24.6 ± 0.88 |
| CN1CC[C@H](c2c(O)cc(O)c3c(=O)cc(-c4ccccc4Cl)oc23)[C@H](O)C1 [Flavopiridol HCl] | 103 ± 1.6 | 98.59 ± 0.27 | 93.1 ± 5.7 | 49.2 ± 0.89 | 10.5 ± 0.34 | 10.1 ± 1.1 | 91.4 ± 6.3 | 88 ± 1.4 | 90.7 ± 3.4 | 55.2 ± 0.46 | 13 ± 0.61 | 11 ± 0.25 |
| CCN[C@H]1C[C@H](C)S(=O)(=O)c2sc(S(N)(=O)=O)cc21 [Dorzolamide HCl] | 98.73 ± 0.8 | 104.2 ± 0.95 | 108 ± 1.7 | 106.3 ± 0.82 | 96.9 ± 2.5 | 103 ± 3.9 | 99 ± 2.7 | 103 ± 3.2 | 103 ± 1.3 | 103 ± 1.4 | 102 ± 3.7 | 97.53 ± 0.19 |
| NC(=O)c1ccc(I)c([N+](=O)[O-])c1 [BSI-201] | 136 ± 2.7 | 130 ± 0.89 | 126.6 ± 0.33 | 116.12 ± 0.099 | 113.7 ± 0.28 | 110 ± 3.1 | 108 ± 2.5 | 103 ± 1.1 | 105.9 ± 0.65 | 102 ± 1.9 | 100.5 ± 0.3 | 102.3 ± 0.13 |
| COc1ccc2c3n(c(=NC(=O)c4cccnc4)nc2c1OC)CCN3 [PIK-90] | 85.1 ± 3.9 | 107 ± 4.7 | 110 ± 2.5 | 112 ± 1.5 | 110 ± 1.3 | 96.7 ± 1.5 | 99 ± 1.5 | 99.75 ± 0.35 | 97.73 ± 0.84 | 97.82 ± 0.96 | 97.97 ± 0.66 | 73.4 ± 6.5 |
| CC1(C)CC(=O)c2c(C(F)(F)F)nn(-c3ccc(C(N)=O)c(N[C@H]4CC[C@H](OC(=O)CN)CC4)c3)c2C1 | 63.2 ± 4.8 | 65.7 ± 8 | 36.9 ± 4.2 | 18.7 ± 2.5 | 13.6 ± 2.5 | 17 ± 1.1 | 108 ± 4.1 | 111.5 ± 0.33 | 82.7 ± 3.9 | 7.92 ± 0.44 | 6.41 ± 0.23 | 7.58 ± 0.32 |
| CC(C)(C)Cn1c(N)nc2ccc(-c3[nH]c(C(C)(C)C)nc3-c3ccc(F)cc3)nc21 | 100 ± 4.4 | 99.6 ± 4.4 | 100 ± 2.6 | 107 ± 4.4 | 99.1 ± 3.6 | 95.24 ± 0.28 | 94.2 ± 2.7 | 98.1 ± 2.3 | 97.1 ± 3.8 | 95.4 ± 1.8 | 93.7 ± 0.94 | 78.75 ± 0.41 |
